Laboratory results: patent US20150273088A1 (Board of Regents, The University of Texas System, priority 2014, published 2015)

Columns and labels:
[1] = system: PDAC cells Panc1 and MiaPaca2; test: GC-MS of glutamine, glutamate and αKG in PDAC cells; type: cell-based; conditions: 300 μM, 48 hours
Description: (§1) GC-MS analysis. Metabolite extraction from cultured cells was performed as described previously by Figueroa et al. (2010). Briefly, cells were rinsed in ice cold PBS and rapidly quenched with 80% methanol spiked with 3-hydroxy-1,5-pentanedioic-2,2,3,4,4-d5 acid (CDN Isotopes, Quebec Canada) as an internal standard. Extracts were then incubated at −80° C. for 20 minutes, sonicated on ice, centrifuged at 14,000×g for 20 minutes at 4° C. to clear precipitate proteins, and supernatants transferred to vials for drying under N2. Derivatizing reagent (MSTFA (N-methyl-N-(trimethylsilyl)trifluoroacetamide):pyridine:acetonitrile 1:1:2) was added to the vials, which were then heated at 70° C. for 15 minutes.
(§2) Derivatized samples were analyzed on an Agilent 7890A gas chromatograph interfaced to an Agilent 5975C mass spectrometer. The GC column used for the study was a HP-5MS (30 m, 0.25 mm i.d., 0.25 μm film coating). A linear temperature gradient was used. The initial temperature of 80° C. was held for 2 minute and increased to 300° C. at 10° C./minute. The temperature was held at 300° C. for 2 minutes. The samples were run by electron ionization (EI) and the source temperature, electron energy, and emission current were 200° C., 70 eV, and 300 μA, respectively. The injector and transfer line temperatures were 250° C. 3-Hydroxy-1,5-pentanedioic-2,2,3,4,4-d5 acid was used as the internal standard in SIM mode for quantitation of 2-hydroxyglutaric acid. Quantitation was carried out by monitoring the ions at m/z 347 (glutamine and αKG), 348 (glutamate), 349 (2-hydroxyglutaric acid), and 354 (3-hydroxy-1,5-pentanedioic-2,2,3,4,4-d5).

[2] = system: PDAC cells Panc1 and MiaPaca2; test: Growth of PDAC cells; type: cell-based
From the text: (§3) Cell culture, transfection, and generation of stable cell lines. HT1080, HEK293T, Panc1, and MIA PaCa-2 cells were obtained from the American Type Culture Collection (ATCC). Normal human astrocytes (NHA) immortalized with E6/E7/hTERT were a kind gift from Dr. Russell O. Pieper (University of California, San Francisco). All cells tested negative for mycoplasma infection. HT1080 cells were authenticated by genotyping for IDH1 and were confirmed to harbor a heterozygous IDH1 R132C mutation by Sanger sequencing of genomic DNA products. The remaining cell lines were not further authenticated. HEK293T, NHA, PANC-1, and MIA Paca-2 cells were maintained with complete DMEM containing 10% fetal bovine serum (FBS) and 1% penicillin/streptomycin (P/S). HT1080 cells were maintained in αMEM containing 10% FBS and 1% P/S. Glutamine-free DMEM (Life Technologies) was supplemented with 10% FBS and 1% P/S and spiked with varying amounts of L-glutamine (Cellgro) for glutamine growth curves.

[3] = system: NHA cells ectopically expressing R132H IDH1; test: GC-MS quantification of 2HG and upstream metabolites in NHA cells expressing IDH1 R132H; type: cell-based, human; conditions: 48 hours
Description: as §1
as §2, with “The temperature was held at 300° C. for 2 minutes. The samples were run by electron ionization (EI) and the source temperature, electron energy, and emission current were 200° C., 70 eV, and 300 μA, respectively. The injector and transfer line temperatures were 250° C.” left out

HT1080 cells = test: GC-MS quantification of 2HG and upstream metabolites in HT1080 cells; type: cell-based, human
Description: as §1, §2

[4] = system: PDAC cells Panc1 and MiaPaca2; test: Sensitivity to H2O2, viability by Alamar Blue; type: cell-based
From the text: as §3

[5] = system: NHA cells expressing IDH1 R132H; test: Soft agar colony assay; type: cell-based, human; conditions: IDH1 R132H astrocytes
From the text: Soft agar assay. A bottom layer of 0.6% soft agar with complete DMEM and 10% FBS was set in 6-well plates and allowed to solidify. Approximately 8,000 cells were then suspended in 0.4% soft agar and plated on top. Colonies were allowed to develop over 3-4 weeks and stained with crystal violet.

CCCOc1ccccc1-c1nc2nn[nH]c2c(=O)[nH]1 [Zaprinast, 5-(2-propoxyphenyl)-1H-[1,2,3]triazolo[4,5-d]pyrimidin-7(4H)-one]
Cellular glutamine [1]: increase
Cellular pool of glutamate [1]: significant reductions
Cellular pool of αKG [1]: significant reductions
Growth of PDAC cells ([2]; 100 μM and 300 μM Zaprinast): significantly reduced
Growth of PDAC cells with glutamate supplementation ([2]; Zaprinast with 5 mM glutamate): restoration of growth
Intracellular 2HG by GC-MS [3]: modulated in a concentration-dependent manner
Pattern of 2HG and upstream metabolite changes ([3]; compared with HT1080): the same pattern of metabolite level changes
Cellular 3-phosphoglycerate (3PG) level (HT1080 cells; HT1080, 300 μM Zaprinast or 10 μM BPTES): did not cause an elevation
Cellular alpha-ketoglutarate level (HT1080 cells; HT1080, 48 hours): reduced
Cellular glutamate level (HT1080 cells; HT1080, 48 hours): reduced
Intracellular 2HG by GC-MS (HT1080 cells; HT1080, 48 hours): modulated in a concentration-dependent manner
Intracellular glutamine level (HT1080 cells; HT1080, 48 hours): unaffected
Sensitivity to oxidative damage after adding back glutamate ([4]; Zaprinast with 5 mM glutamate): nearly completely abolished the increased sensitivity to oxidative damage
Susceptibility to hydrogen peroxide stress versus vehicle ([4]; cells pretreated with Zaprinast): significantly more susceptible
Soft agar colony formation [5]: reduced colony formation in IDH1 R132H astrocytes down to the level of vector and wild-type cells
